Assay [1] addresses T1, Wzt-CBD (also Wzt-CBM, WztC) (Aquifex aeolicus, UniProt O67181).
T1 construct: gene abcT4; N-terminal His6-TEV tag removed; E. coli C43(DE3); domain-swapped dimer
The experiment in a line: isothermal titration calorimetry. Format: binding. Particulars: 50 mM HEPES pH 8.0, 25 °C; 1:1 per CBD monomer; read-out: affinity.

For assay [2], the target named is T2, WzmWzt (full-length) (Aquifex aeolicus, UniProt O67181).
T2 construct: gene abcT4; full-length wild-type transporter, Wzm2Wzt2; His-tagged (WzmWzt-His), purified as previously described; in lipid nanodiscs or DDM micelles; with O antigen ABC transporter permease Wzm (Transport permease protein)
The experiment in a line: NADH-coupled ATPase assay. In kind it is biochemical. The settings on record: 1 mM ATP, 27 °C; CBD ligand, non-physiologically high concentration.

T2 sequence (O67181 entry or part of it): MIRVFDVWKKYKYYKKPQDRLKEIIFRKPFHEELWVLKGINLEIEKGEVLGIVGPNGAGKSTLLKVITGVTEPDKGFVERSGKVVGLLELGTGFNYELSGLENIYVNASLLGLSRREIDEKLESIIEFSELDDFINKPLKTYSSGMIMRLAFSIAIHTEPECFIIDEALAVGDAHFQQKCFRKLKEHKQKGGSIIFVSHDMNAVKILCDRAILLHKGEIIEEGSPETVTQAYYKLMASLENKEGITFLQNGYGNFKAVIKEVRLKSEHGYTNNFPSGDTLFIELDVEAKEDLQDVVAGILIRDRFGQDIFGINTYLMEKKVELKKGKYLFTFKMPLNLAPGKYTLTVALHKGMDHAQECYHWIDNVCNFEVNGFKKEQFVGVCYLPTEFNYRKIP
T2 sequence (O67182 entry or part of it, further chain): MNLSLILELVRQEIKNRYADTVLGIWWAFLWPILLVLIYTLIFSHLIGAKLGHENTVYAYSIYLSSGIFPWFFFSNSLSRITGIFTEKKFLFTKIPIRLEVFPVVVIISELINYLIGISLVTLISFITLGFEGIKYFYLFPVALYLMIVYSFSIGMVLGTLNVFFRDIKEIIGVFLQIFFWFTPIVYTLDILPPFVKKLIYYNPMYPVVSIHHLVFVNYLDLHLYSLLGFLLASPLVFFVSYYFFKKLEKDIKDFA
T1 sequence (O67181 entry or part of it): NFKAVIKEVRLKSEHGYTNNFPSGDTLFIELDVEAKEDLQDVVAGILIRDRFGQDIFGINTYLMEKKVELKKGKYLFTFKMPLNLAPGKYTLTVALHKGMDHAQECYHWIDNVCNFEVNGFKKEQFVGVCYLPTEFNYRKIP

Regarding `CO[C@H]1[C@H](O)[C@@H](CO)OC(O)[C@H]1O` (stereo partly drawn) [3-O-methyl-D-mannose], in assay [1], the Kd is around 234 µM. Moreover, the “% increase in ATPase activity at high concentration” value in assay [2] is ~ 50%.
